From patent publication US8741659B2, “Composition for measuring the binding affinity between nucleic acid and test substance, and use thereof” (Osaka University, priority 2007, dated 2014)

Tested on: RRE
Assay: Displacement assay using Rev peptide after formation of complex with RRE
Type: binding, HIV-1
Settings: compound and RRE each 2 μM, Rev protein 0-4.0 μM
Protocol: In this Example, a binding affinity between a test substance and RRE was evaluated, with use of the compounds, X2S, X2S(3), X2S(4), X2S(5), X2S(2-Me), and 3,6-X2S(2). As the test substance, Rev protein used in Example 5 was used.
Firstly, in the same manner as in Example 3, the above compounds and RREs were respectively dissolved in cacodylate buffer solutions (sodium cacodylate: 10 mM pH 7.0, NaCl: 100 mM) each at 2 μM, so that an X2S-RRE solution, an X2S(3)-RRE solution, an X2S(4)-RRE solution, an X2S(5)-RRE solution, an X2S(2-Me)-RRE solution, and a 3,6-X2S(2)-RRE solution were prepared.
To each of these solutions, Rev protein was added in stages at 0 μM, 0.4 μM, 0.8 μM, 1.2 μM, 1.6 μM, 2.0 μM, 2.4 μM, 2.8 μM, 3.2 μM, 3.6 μM, and 4.0 μM. Further, a fluorescence intensity was measured at each concentration. The fluorescence intensity was measured in the same manner as that described in Example 14.
Each of FIGS. 43 to 48 is a view illustrating a result of the measurement of a binding affinity between Rev protein and RRE. […] In each of FIGS. 43 to 48, the horizontal axis represents the fluorescence wavelength, whereas the vertical axis represents the fluorescence intensity. […] Further, along the direction of the arrow extending from the curved line at the bottom, the curved lines, showing the respective results, are arranged in order of increasing amount of the test substance which was added.
FIG. 49 is a view illustrating a relationship between an amount of Rev added and a fluorescence intensity, in connection with X2S, X2S(3), X2S(4), X2S(5), X2S(2-Me), and 3,6-X2S(2). Further, FIG. 49 is also a view plotting, based on the results illustrated in FIGS. 43 to 48, the fluorescence intensities detected at the fluorescence wavelength at which the respective fluorescence peaks were observed. FIG. 50 is a graph illustrating a relationship between an amount of Rev added and a recovery rate of the fluorescence intensity. In FIG. 49, the vertical axis represents the fluorescence intensity. In FIG. 50, the vertical axis represents the recovery rate of the fluorescence intensity. In each of FIGS. 49 and 50, the horizontal axis represents the amount of Rev added. That is, each of FIGS. 49 and 50 reflects amounts of the above compounds liberated from RREs due to the addition of Rev.
The recovery rate of the fluorescence intensity was obtained by dividing (i) a maximum value of the fluorescence intensity detected at each Rev concentration ranging from 0 μM to 4.0 μM in each of FIGS. 43 to 48 by (ii) a maximum value of the fluorescence intensity of the curved line at the top in each of FIGS. 43 to 48.
In this Example, 1-Pyrenemethanamide, hydrochloride was used to measure a binding affinity between a test substance and RRE. As the test substance, Rev protein used in Example 5 was used.
Firstly, in the same manner as in Example 3, 1-Pyrenemethanamide, hydrochloride and RRE were dissolved in a cacodylate buffer solution (sodium cacodylate: 10 mM, pH 7.0; NaCl: 100 mM) each at 2 μM, so that a 1-Pyrenemethanamide, hydrochloride-RRE solution was prepared.
To the solution, Rev protein was added in steps at 0 μM, 0.4 μM, 0.8 μM, 1.2 μM, 1.6 μM, 2.0 μM, 2.4 μM, 2.8 μM, 3.2 μM, 3.6 μM, and 4.0 μM. Further, the solution at each concentration was irradiated with light having an excitation wavelength of 340 nm, and a fluorescence intensity was measured. A device used for measuring a fluorescence intensity and a variation in a slit width were the same as those in Example 13.
FIG. 55 is a view illustrating a result of the measurement of a binding affinity between Rev protein and RRE. The horizontal axis represents the fluorescence wavelength, whereas the vertical axis represents the fluorescence intensity. […] Further, along a bottom-to-top direction, the curved lines, showing the respective results, are arranged in order of increasing amount of the test substance which was added. […]

NCCOc1ccc2oc3ccc(OCCN)cc3c(=O)c2c1 [X2S, 2,7-bis(2-aminoethoxy)xanthen-9-one]
fluorescence intensity in displacement assay: high
recovery rate of the fluorescence intensity: good
